Experiment [1] deals with T1, Catalase (from bovine liver) (Bos taurus, UniProt P00432).
T1 construct: Catalase (from bovine liver); purchased Sigma-Aldrich, St. Louis, MO, USA; host or cells: bovine liver
T1 sequence (P00432 2-527 limits assumed): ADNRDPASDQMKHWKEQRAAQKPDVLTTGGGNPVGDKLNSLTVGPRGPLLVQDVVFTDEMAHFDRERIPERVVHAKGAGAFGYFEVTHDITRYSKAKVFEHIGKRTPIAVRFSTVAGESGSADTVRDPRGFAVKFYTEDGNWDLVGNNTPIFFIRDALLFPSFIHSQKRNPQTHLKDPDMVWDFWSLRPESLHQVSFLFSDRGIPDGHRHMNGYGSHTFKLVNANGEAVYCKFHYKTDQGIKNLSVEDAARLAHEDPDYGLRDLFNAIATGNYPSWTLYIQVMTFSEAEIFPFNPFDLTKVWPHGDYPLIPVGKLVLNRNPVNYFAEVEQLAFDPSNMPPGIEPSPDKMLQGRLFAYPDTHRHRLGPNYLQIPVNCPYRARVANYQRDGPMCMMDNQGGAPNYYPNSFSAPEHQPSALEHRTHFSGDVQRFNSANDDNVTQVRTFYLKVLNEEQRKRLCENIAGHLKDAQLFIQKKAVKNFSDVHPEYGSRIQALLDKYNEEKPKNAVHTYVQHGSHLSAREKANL
Nature of the experiment: Fluorimetric titration: quenching of catalase fluorescence by catechins. It is filed as binding. To be noted: double logarithmic plot, 25°C; for Kd: pH 7.4, λex 280 nm, read-out: binding constant K with catalase (fluorimetric) (converted). On the procedure:
Fluorescence spectra were recorded using a Perkin Elmer fluorescence spectrophotometer (LS-55) equipped with 150 W Xenon flash lamp and using fluorescence-free quartz cell of 1 cm path length. The widths of excitation and emission slits were set to 5 nm, and scan speed (100 nm/min), excitation voltage were kept constant for each data set. Quantitative analysis of the potential interaction between catechins and catalase was performed by the fluorimetric titration technique. Briefly, solution of catalase (5×10^−7 M, as calculated using molar extinction coefficient of 3.24×10^5 M^−1 s^−1 at 405 nm for catalase) in 50 mM phosphate buffer of pH 7.4 was titrated in cuvette by successive additions of individual catechin solution aliquots from a stock of 5×10^−7 M. Fluorescence emission spectra were recorded in the wavelength range of 290–450 nm upon excitation at 280 nm when catalase samples were titrated with catechins. All experiments were carried out at room temperature. Fluorescence intensity was measured at 340 nm of protein emission spectra. Fluorescence spectra of individual catechins in buffer were recorded as blanks under the same experimental conditions and subtracted from the corresponding sample to correct the fluorescence background.
The binding constants and the number of binding sites involved were calculated according to the relation: log (F0–F)/F = log K+n log [Q], where K is the binding constant and n is the number of binding sites, F0 is the fluorescence intensity of free catalase, F is the consecutive fluorescence on addition of catechins, and [Q] is the concentration of the quencher (here catechins). A plot of log (F0– F)/F and log [Q] was used to determine the values of K and n from the intercept and the slope respectively (Figure 3 A–D).

Experiment [2] has as its target T1, Catalase (from bovine liver). Nature of the experiment: Isothermal titration calorimetry of catechins binding to catalase. Conditions: 25°C; for ΔG / ΔH / ΔS: ITC; for ΔG: calculated from the average values of ΔH; for ΔH / ΔS: directly extracted from the experiment; for Kd: one-site binding model, from ΔG = −RT ln K, read-out: binding constant with catalase (ITC) (converted). Here is the method:
The energetics of the binding of catechins to catalase was studied by ITC using a MicroCal ITC200, (Northampton, MA, USA). All solutions were degassed under vacuum (140 mbar, 10 min) on the MicroCal’s Thermovac unit to eliminate air bubble formation inside the calorimeter cell. Briefly, the calorimeter syringe was filled with a concentrated solution of catechins (10 µM each). Successive injections of this solution into 1 µM solution of catalase in the calorimeter cell were effected from the rotating syringe with constant stirring of the solution. The titration and analysis were performed through Origin 7 software provided with the unit.
ITC directly measures the heat released during a chemical reaction. ITC can reveal the stoichiometry, enthalpy free energy, and entropy changes that occur over the course of a reaction, [46]. Data obtained from the titration are presented by the series of peaks corresponding to each injection. Usually, this representation is transformed into the apparent heat change between two injections as a function of the titrant ratio by means of integration of power differential with regard to time. ITC has been used mainly to quantify interactions in various biochemical systems [47]–[49]. ITC has been used in the present study to determine binding affinity and other thermodynamic parameters of catechins-catalase interaction. Representative isothermal calorimetric heat profiles for the binding of catechins-catalase interaction, at physiological pH and 25°C are shown in Figure 4 (A–D). The data were corrected for the heat of dilution of catechins, which was determined in a separate set of experiments under identical conditions. The titration and analysis were performed using one-site binding model through Origin 7 software provided with the unit. From Figure 4 it is observed that the titration of catalase with all the four catechins yield negative heat deflections. EC, EGC, ECG, and EGCG bind to catalase with binding constants 2.13×10^5, 1.92×10^5, 6.36×10^5, and 8.19×10^5 M^−1, respectively, as determined by the following equation: ΔG = −RT ln K, where ΔG is the free energy, R and T are the gas constant and temperature, respectively, K is the binding constant.

The target is the same in experiment [3]. Nature of the experiment: Circular dichroism: catechin-induced conformational change in catalase. Conditions: catalase 1 µM, ligands 3 µM each, 25°C. Here is the method:
All the CD experiments were carried out on a Jasco-815 automatic spectropolarimeter (Jasco International Co., Ltd. Hachioji, Japan) equipped with a peltier cuvette holder and temperature controller PFD425 L/15. The catalase concentration and path length of the cuvette used were 1 µM and 0.1 cm, respectively. The instrument parameters were set at scanning speed of 50 nm/min, bandwidth of 1.0 nm and sensitivity of 100 milli degree. The molar ellipticity values are expressed in terms of mean residue molar ellipticity, in units of deg. cm^2 dmol^−1.
CD allows investigation of the conformational changes that occur in a protein upon ligand binding. The CD spectra of catalase at pH 7.4 in the absence and in the presence of EGC, EC, ECG, EGCG, and 3-AT at 25°C are represented in Figure 5 (a – f). […] The negative band at 208 and 220 nm decreased in intensity with the addition of various catechins, which is indicative of the loss of α-helicity upon interaction. […] From the CD spectra, the effect of catechins on the secondary structure of catalase is in the following order: 3-AT>EGCG>ECG>EC>EGC.
(CD spectra are sensitive to the conformation of chiral molecules.)

Experiment [4] has the same target. Briefly: Inhibition of pure catalase activity (cell free), H2O2 decay at 240 nm. It is filed as biochemical. Conditions: pure catalase, 50 µM each, 1 h incubation. Here is the method:
Absorption spectrophotometer (Varian, CARY 100 Bio, USA) was used to determine pure catalase activity (cell free). Briefly, 900 µl of H2O2 (0.036%) was taken in quartz cell of 1 cm path length and its absorbance was recorded at 240 nm. To the solution, 100 µl of catalase (50 U/ml) was added and the decrease in absorbance was recorded at 10 s interval. This experiment was performed in presence 50 µM each of four catechins and 3-AT separately to evaluate the inhibitory effect of catechins on catalase activity, after 1 h incubation.
On addition of catechins, a decrease in rate of H2O2 degradation i.e. a decrease in pure catalase activity was observed which is represented in Figure 6A. Catechins with galloyl moiety (ECG and EGCG) reduced catalase activity more than its non-gallated counterparts i.e. EGC and EC. However, Inhibition by EGCG is the closest to inhibition by known catalase inhibitor 3-AT.

In experiment [5] the target is human dihydrofolate reductase (DHFR). The arrangement: method as in PMID 20054477. Conditions: fluorescence quenching; cited from earlier work.
A further experiment deals with catalase. Conditions: cited from earlier work.
For another experiment, the system named is K562 cells. Briefly: MTT cell viability assay. It is filed as cell-based. Conditions: Homo sapiens. Here is the method: Cell viability of K562 cells was quantified by MTT based colorimetric assay as described elsewhere. Briefly, cells were rinsed with PBS and 0.5 mg/ml MTT was added into each sample. The mixture was incubated at 37°C for an additional 3 h. At the end of incubation period, the medium containing MTT was removed and the pellet was dissolved in 200 µl DMSO. Absorbance was measured at a wavelength of 570 nm. Cell viability was expressed as a percentage of the control culture.
The concentration (IC50) at which the K562 cell survivability was reduced to 50% was calculated for EGCG and 3-AT by MTT based cell viability assay.
(In general: Tetrazolium assays rely on reduction of a dye to a coloured formazan, in cell work by metabolically active cells.)

pIC50, pKd: −log10 of the molar value.

`O=C(OC1Cc2c(O)cc(O)cc2OC1c1ccc(O)c(O)c1)c1cc(O)c(O)c(O)c1` (single isomer, unassigned; (-)) [ECG, (−)-epicatechin gallate]: in experiment [1], the “number of binding sites n” value is recorded as “single binding site” and the Kd is 0.602 µM. In experiment [2], the ΔG is -7.8 kcal/mol, the ΔH was -756 ± 30.2 kcal/mol, the ΔS is on record as −2.60×10^3 cal/mol/K and the Kd is 1.57 µM. Further, in experiment [3], the “order of effect on the secondary structure of catalase (loss of α-helicity)” value (shortened to “order of effect … (loss of α-helicity)”) is given as 3-AT>EGCG>ECG>EC>EGC. The “order of inhibition of catalase activity” value in experiment [4] is 3-AT>EGCG>ECG>EC>EGC. Also, the pKd (commonly −log10 of the Kd, conventionally taken in molar units) in experiment [5] was 5.74.
Take `Oc1cc(O)c2c(c1)OC(c1cc(O)c(O)c(O)c1)C(O)C2` (single isomer, unassigned; (-)) [EGC, (−)-epigallocatechin]: in experiment [1], the “number of binding sites n” value is reported as “single binding site” and the Kd was 12.7 µM. Besides, in experiment [2], the ΔG is -7.1 kcal/mol, the ΔH is -3.2e+06 ± 106000 kcal/mol, the ΔS is reported as −1.07×10^7 cal/mol/K and the Kd is 5.21 µM. The “order of effect … (loss of α-helicity)” value in experiment [3] is listed as 3-AT>EGCG>ECG>EC>EGC. In addition, the “order of inhibition of catalase activity” value in experiment [4] is 3-AT>EGCG>ECG>EC>EGC. In addition, in experiment [5], the “binding to DHFR” value is “did not bind”.
On to microcystin, for which the “binding constant of catalase-microcystin complex” value in the experiment with catalase is 61200 M⁻¹.
Regarding `Oc1cc(O)c2c(c1)O[C@H](c1ccc(O)c(O)c1)[C@H](O)C2` [EC, (−)-epicatechin], in experiment [1], the “number of binding sites n” value is “single binding site” and the Kd was 9.26 µM. Besides, in experiment [2], the ΔG is -7.17 kcal/mol, the ΔS is on record as −2.40×10^7 cal/mol/K and the Kd was 4.69 µM. Also, in experiment [3], the “order of effect … (loss of α-helicity)” value was 3-AT>EGCG>ECG>EC>EGC. The “order of inhibition of catalase activity” value in experiment [4] was 3-AT>EGCG>ECG>EC>EGC. Moreover, the “binding to DHFR” value in experiment [5] was “did not bind”.
`Nc1nc[nH]n1` [3-AT, 3-amino-1,2,4-triazole, reference compound]: the “order of effect … (loss of α-helicity)” value in experiment [3] is recorded as 3-AT>EGCG>ECG>EC>EGC. In addition, the “order of inhibition of catalase activity” value in experiment [4] is 3-AT>EGCG>ECG>EC>EGC. In addition, the pIC50 – broadly, −log10 of the IC50, conventionally taken in molar units – in the experiment on K562 cells is 4.98.

(Values after paper PMC4099323, “Inhibition of Catalase by Tea Catechins in Free and Cellular State: A Biophysical Approach” (PLoS ONE, 2014).)
